What was measured:
Type in all cases: in vivo
[1] = system: Abutilon theophrasti (ABUTH); assay: Herbicidal pre-emergence action, section A (Table A1); settings: visual grading after ca. 3 weeks vs untreated controls
How it was run: (§1)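 Double sowings in sandy loam; soil-surface spray of WP/EC aqueous preparations, 0.5% additive, 600 l/ha water. Greenhouse, optimum conditions. Visual % damage at ~3 wk vs untreated (100% = dead, 0% = control-like).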

[2] = system: Matricaria inodora (MATIN); assay: Herbicidal pre-emergence action, section C (Table C6); settings: visual grading after ca. 3 weeks
From the text: (§2) Seeds of mono- and dicotyledonous weed plants and crop plants were sown, in plastic or organic planting pots, in sandy loam and covered with soil. The compounds according to the invention, formulated in the form of wettable powders (WP) or as emulsifiable concentrates (EC), were applied to the surface of the covering soil as aqueous suspension or emulsion, with the addition of 0.5% of an additive, at an application rate of 600 l of water/ha (converted). Following treatment, the pots were placed in a greenhouse and kept under optimum growth conditions for the test plants. The visual grading of the damage to the test plants was carried out after ca. 3 weeks in comparison to untreated controls (herbicidal effect in percent (%): 100% effect=plants have died off, 0% effect=as control plants).

[3] = system: Abutilon theophrasti (ABUTH); assay: Herbicidal pre-emergence action, section C (Table C1); settings: visual grading after ca. 3 weeks vs untreated controls
From the text: as §2

[4] = system: Kochia scoparia (KCHSC); assay: Herbicidal post-emergence action, section B (Table B4); settings: application rate 320 g/ha, visual rating about 3 weeks after treatment vs untreated controls
How it was run: (§3)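 Post-emergence greenhouse test: weeds sown in sandy loam, treated at one-leaf stage 2–3 weeks after sowing with WP or EC formulations sprayed as aqueous suspension/emulsion plus 0.5% additive at 600 L/ha. Activity rated visually versus untreated controls after about 3 weeks (100% = plants dead, 0% = like control).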

[5] = system: Kochia scoparia (KCHSC); assay: Herbicidal pre-emergence action, section A (Table A4); settings: visual grading after ca. 3 weeks vs untreated controls
How it was run: as §1

[6] = system: Veronica persica (VERPE); assay: Herbicidal post-emergence action, section B (Table B10); settings: application rate 320 g/ha, visual rating about 3 weeks after treatment vs untreated controls
How it was run: as §3

[7] = system: Zea mays (ZEAMX); assay: Pre-emergence effects on crop plants, section D (Table D1); settings: application rate 80 g/ha; visual grading after ca. 3 weeks
How it was run: (§4)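 Read-out: visual percent injury versus untreated controls at ca. 3 weeks (0% as control, 100% dead). Treatment: aqueous WP/EC suspension or emulsion with 0.5% additive, 600 l/ha, on soil covering seeds in sandy loam, at 320 g/ha or below, under optimum greenhouse conditions.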

[8] = system: Echinochloa crus-galli (ECHCG); assay: Herbicidal pre-emergence action, section A (Table A3); settings: visual grading after ca. 3 weeks vs untreated controls
How it was run: as §1

[9] = system: Lolium rigidum (LOLRI); assay: Herbicidal post-emergence action, section B (Table B5); settings: visual rating about 3 weeks after treatment vs untreated controls
How it was run: as §3

[10] = system: Alopecurus myosuroides (ALOMY); assay: Herbicidal pre-emergence action, section C (Table C2); settings: visual grading after ca. 3 weeks vs untreated controls
How it was run: (§5)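 Greenhouse pre-emergence test on sandy loam: spray of formulated compound onto covering soil at 600 l water/ha, then percent damage judged by eye after ca. 3 weeks relative to untreated pots.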

[11] = system: Triticum aestivum (TRZAS); assay: Pre-emergence effects on crop plants, section D (Table D2); settings: application rate 80 g/ha; visual grading after ca. 3 weeks
How it was run: as §4

[12] = system: Polygonum convolvulus (POLCO); assay: Herbicidal pre-emergence action, section C (Table C7); settings: application rate 80 g/ha, visual grading after ca. 3 weeks
How it was run: as §5

Compound: Cc1cc2c(nc1-c1ccccc1F)N(C(=O)C13CCCC1C(Cl)=NO3)CS2 (centres unmarked) [Example I-104]
- pre-emergence activity against ABUTH in % ([1]; application rate 1280 g/ha): 90%
- pre-emergence activity against MATIN in % ([2]; application rate 800 g/ha (so in the source)): 90%
- pre-emergence activity against ABUTH in % ([3]; application rate 320 g/ha): 80%
- post-emergence activity against KCHSC in % [4]: 90%
- pre-emergence activity against KCHSC in % ([5]; application rate 320 g/ha): 90%
- post-emergence activity against VERPE in % [6]: 90%
- pre-emergence activity against ZEAMX in % (crop plant damage) [7]: 0) %
- pre-emergence activity against ECHCG in % ([8]; application rate 320 g/ha): 100%
- post-emergence activity against LOLRI in % ([9]; application rate 320 g/ha): 90%
- pre-emergence activity against ALOMY in % ([10]; application rate 320 g/ha): 100%
- pre-emergence activity against TRZAS in % (crop plant damage) [11]: 0%
- pre-emergence activity against POLCO in % [12]: 80%

Compound: CCS(=O)(=O)N1CSc2cc(C)c(-c3ccccc3F)nc21 [Example I-060, 3-(ethylsulfonyl)-5-(2-fluorophenyl)-6-methyl-2,3-dihydro[1,3]thiazolo[4,5-b]pyridine]
- pest or weed control at 320 g/ha ([1]; Abutilon theophrasti, pre-emergence, 504 h, application rate 320 g/ha, read-out: pre-emergence activity against ABUTH in %): 90%
- pest or weed control at 320 g/ha ([2]; Tripleurospermum inodorum, pre-emergence, 504 h, application rate 320 g/ha, read-out: pre-emergence activity against MATIN in %): 90%
- pest or weed control at 80 g/ha ([3]; Abutilon theophrasti, pre-emergence, 504 h, application rate 80 g/ha, read-out: pre-emergence activity against ABUTH in %): 90%
- pest or weed control at 320 g/ha ([4]; Bassia scoparia, post-emergence, 504 h, read-out: post-emergence activity against KCHSC in %): 90%
- pest or weed control at 1280 g/ha ([5]; Bassia scoparia, pre-emergence, 504 h, application rate 1280 g/ha, read-out: pre-emergence activity against KCHSC in %): 100%
- pest or weed control at 320 g/ha ([6]; Veronica persica, post-emergence, 504 h, read-out: post-emergence activity against VERPE in %): 90%
- pre-emergence activity against ZEAMX in % (crop plant damage) [7]: 20%
- pest or weed control at 1280 g/ha ([8]; Echinochloa crus-galli, pre-emergence, 504 h, application rate 1280 g/ha, read-out: pre-emergence activity against ECHCG in %): 100%
- pest or weed control at 1280 g/ha ([9]; Lolium rigidum, post-emergence, 504 h, application rate 1280 g/ha, read-out: post-emergence activity against LOLRI in %): 90%
- pest or weed control at 80 g/ha ([10]; Alopecurus myosuroides, pre-emergence, 504 h, application rate 80 g/ha, read-out: pre-emergence activity against ALOMY in %): 100%
- pest or weed control at 80 g/ha ([12]; Fallopia convolvulus, pre-emergence, 504 h, read-out: pre-emergence activity against POLCO in %): 80%

— patent publication US20240381872A1, “SUBSTITUTED 2,3-DIHYDRO[1,3]THIAZOLO[4,5-B]PYRIDINES, SALTS THEREOF AND THEIR USE AS HERBICIDALLY ACTIVE SUBSTANCES” (BAYER AKTIENGESELLSCHAFT, priority 2021, published 2024)
